The supplement of paper PMC10307832

What was measured:
Experiment in all cases: relative viability (nuclei count vs DMSO), 5 days (fraction); higher = more cells survive
4EGI-1 + Alpelisib = compound: O=C(O)C(Cc1ccccc1[N+](=O)[O-])=NNc1nc(-c2ccc(Cl)c(Cl)c2)cs1 (mixture of isomers) [4EGI-1] + Cc1nc(NC(=O)N2CCC[C@H]2C(N)=O)sc1-c1ccnc(C(C)(C)C(F)(F)F)c1 [Alpelisib] (partner 2 µM)
How it was run: (§1)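 Cells from lung cancer lines were seeded into 1536-well plates and, one day later, dosed by pin tool. Treatments were either a single drug or a fixed dose of an anchor drug with five library-drug doses (not always all listed) in √10 steps. After 5 days, nuclei were stained in a one-step fixation (final 0.05% Triton X-100, 1% formaldehyde, 1 ug/ml Hoechst) and counted on 4× images, and relative viability is the treated-to-vehicle nuclei ratio, as the median of duplicate plates.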

4EGI-1 + Olaparib = compound: O=C(O)C(Cc1ccccc1[N+](=O)[O-])=NNc1nc(-c2ccc(Cl)c(Cl)c2)cs1 (mixture of isomers) [4EGI-1] + O=C(c1cc(Cc2n[nH]c(=O)c3ccccc23)ccc1F)N1CCN(C(=O)C2CC2)CC1 [Olaparib] (partner 8 µM)
How it was run: as §1

4EGI-1 + Tozasertib = compound: O=C(O)C(Cc1ccccc1[N+](=O)[O-])=NNc1nc(-c2ccc(Cl)c(Cl)c2)cs1 (mixture of isomers) [4EGI-1] + Cc1cc(Nc2cc(N3CCN(C)CC3)nc(Sc3ccc(NC(=O)C4CC4)cc3)n2)n[nH]1 [Tozasertib] (partner 0.1 µM)
How it was run: as §1

XMD8-85 + Lapatinib = compound: CN1CCN(CC1)C2=CC(=C(C=C2)NC3=NC=C4C(=N3)N(C5=CC=CC=C5C(=O)N4C)C)OC [XMD8-85] + CS(=O)(=O)CCNCc1ccc(-c2ccc3ncnc(Nc4ccc(OCc5cccc(F)c5)c(Cl)c4)c3c2)o1 [Lapatinib] (partner 2 µM)
How it was run: as §1

## NCI-H1755
4EGI-1 + Alpelisib; first compound 0.5 µM
  relative viability: 0.956
4EGI-1 + Alpelisib; first compound 1.581 µM
  relative viability: 1.03
4EGI-1 + Alpelisib; first compound 5 µM
  relative viability: 0.88
4EGI-1 + Alpelisib; first compound 15.81 µM
  relative viability: 0.851
4EGI-1 + Alpelisib; first compound 50 µM
  relative viability: 0.445
4EGI-1 + Olaparib; first compound 0.5 µM
  relative viability: 0.936
4EGI-1 + Olaparib; first compound 1.581 µM
  relative viability: 0.811
4EGI-1 + Olaparib; first compound 5 µM
  relative viability: 0.858
4EGI-1 + Olaparib; first compound 15.81 µM
  relative viability: 0.78
4EGI-1 + Olaparib; first compound 50 µM
  relative viability: 0.616
4EGI-1 + Tozasertib; first compound 0.5 µM
  relative viability: 0.625
4EGI-1 + Tozasertib; first compound 1.581 µM
  relative viability: 0.569
4EGI-1 + Tozasertib; first compound 5 µM
  relative viability: 0.525
4EGI-1 + Tozasertib; first compound 15.81 µM
  relative viability: 0.486
4EGI-1 + Tozasertib; first compound 50 µM
  relative viability: 0.355
XMD8-85 + Lapatinib; first compound 0.08 µM
  relative viability: 0.943
XMD8-85 + Lapatinib; first compound 0.253 µM
  relative viability: 1.1
XMD8-85 + Lapatinib; first compound 0.8 µM
  relative viability: 1.05
XMD8-85 + Lapatinib; first compound 2.53 µM
  relative viability: 1.17
XMD8-85 + Lapatinib; first compound 8 µM
  relative viability: 0.996

## NCI-H2126
4EGI-1 + Alpelisib; first compound 0.5 µM
  relative viability: 0.779
4EGI-1 + Alpelisib; first compound 1.581 µM
  relative viability: 0.716
4EGI-1 + Alpelisib; first compound 5 µM
  relative viability: 0.749
4EGI-1 + Alpelisib; first compound 15.81 µM
  relative viability: 0.67
4EGI-1 + Alpelisib; first compound 50 µM
  relative viability: 0.739
4EGI-1 + Olaparib; first compound 0.5 µM
  relative viability: 1
4EGI-1 + Olaparib; first compound 1.581 µM
  relative viability: 0.927
4EGI-1 + Olaparib; first compound 5 µM
  relative viability: 0.858
4EGI-1 + Olaparib; first compound 15.81 µM
  relative viability: 0.942
4EGI-1 + Olaparib; first compound 50 µM
  relative viability: 0.654
4EGI-1 + Tozasertib; first compound 0.5 µM
  relative viability: 1
4EGI-1 + Tozasertib; first compound 5 µM
  relative viability: 0.861
4EGI-1 + Tozasertib; first compound 15.81 µM
  relative viability: 0.822
4EGI-1 + Tozasertib; first compound 50 µM
  relative viability: 0.741
XMD8-85 + Lapatinib; first compound 0.08 µM
  relative viability: 0.705
XMD8-85 + Lapatinib; first compound 0.253 µM
  relative viability: 0.714
XMD8-85 + Lapatinib; first compound 0.8 µM
  relative viability: 0.757
XMD8-85 + Lapatinib; first compound 2.53 µM
  relative viability: 0.837
XMD8-85 + Lapatinib; first compound 8 µM
  relative viability: 0.646

## NCI-H1651
4EGI-1 + Alpelisib; first compound 0.5 µM
  relative viability: 0.927
4EGI-1 + Alpelisib; first compound 1.581 µM
  relative viability: 0.914
4EGI-1 + Alpelisib; first compound 5 µM
  relative viability: 0.913
4EGI-1 + Alpelisib; first compound 15.81 µM
  relative viability: 0.906
4EGI-1 + Alpelisib; first compound 50 µM
  relative viability: 0.556
4EGI-1 + Olaparib; first compound 0.5 µM
  relative viability: 0.186
4EGI-1 + Olaparib; first compound 1.581 µM
  relative viability: 0.176
4EGI-1 + Olaparib; first compound 5 µM
  relative viability: 0.185
4EGI-1 + Olaparib; first compound 15.81 µM
  relative viability: 0.189
4EGI-1 + Olaparib; first compound 50 µM
  relative viability: 0.151
4EGI-1 + Tozasertib; first compound 0.5 µM
  relative viability: 0.704
4EGI-1 + Tozasertib; first compound 1.581 µM
  relative viability: 0.518
4EGI-1 + Tozasertib; first compound 5 µM
  relative viability: 0.678
4EGI-1 + Tozasertib; first compound 15.81 µM
  relative viability: 0.383
4EGI-1 + Tozasertib; first compound 50 µM
  relative viability: 0.372
XMD8-85 + Lapatinib; first compound 0.08 µM
  relative viability: 0.764
XMD8-85 + Lapatinib; first compound 0.253 µM
  relative viability: 0.842
XMD8-85 + Lapatinib; first compound 0.8 µM
  relative viability: 0.96
XMD8-85 + Lapatinib; first compound 2.53 µM
  relative viability: 0.977
XMD8-85 + Lapatinib; first compound 8 µM
  relative viability: 0.555

## NCI-H2228
4EGI-1 + Alpelisib; first compound 0.5 µM
  relative viability: 0.664
4EGI-1 + Alpelisib; first compound 1.581 µM
  relative viability: 0.672
4EGI-1 + Alpelisib; first compound 5 µM
  relative viability: 0.82
4EGI-1 + Alpelisib; first compound 15.81 µM
  relative viability: 0.61
4EGI-1 + Alpelisib; first compound 50 µM
  relative viability: 0.177
4EGI-1 + Olaparib; first compound 0.5 µM
  relative viability: 0.947
4EGI-1 + Olaparib; first compound 1.581 µM
  relative viability: 0.702
4EGI-1 + Olaparib; first compound 5 µM
  relative viability: 0.693
4EGI-1 + Olaparib; first compound 15.81 µM
  relative viability: 0.536
4EGI-1 + Olaparib; first compound 50 µM
  relative viability: 0.128
4EGI-1 + Tozasertib; first compound 0.5 µM
  relative viability: 0.276
4EGI-1 + Tozasertib; first compound 1.581 µM
  relative viability: 0.273
4EGI-1 + Tozasertib; first compound 5 µM
  relative viability: 0.248
4EGI-1 + Tozasertib; first compound 15.81 µM
  relative viability: 0.285
4EGI-1 + Tozasertib; first compound 50 µM
  relative viability: 0.134
XMD8-85 + Lapatinib; first compound 0.08 µM
  relative viability: 0.827
XMD8-85 + Lapatinib; first compound 0.253 µM
  relative viability: 0.93
XMD8-85 + Lapatinib; first compound 0.8 µM
  relative viability: 1.14
XMD8-85 + Lapatinib; first compound 8 µM
  relative viability: 0.549

## NCI-H460
4EGI-1 + Alpelisib; first compound 0.5 µM
  relative viability: 0.511
4EGI-1 + Alpelisib; first compound 5 µM
  relative viability: 0.493
4EGI-1 + Alpelisib; first compound 15.81 µM
  relative viability: 0.197
4EGI-1 + Alpelisib; first compound 50 µM
  relative viability: 0.0546
4EGI-1 + Olaparib; first compound 0.5 µM
  relative viability: 0.425
4EGI-1 + Olaparib; first compound 5 µM
  relative viability: 0.436
4EGI-1 + Olaparib; first compound 15.81 µM
  relative viability: 0.244
4EGI-1 + Olaparib; first compound 50 µM
  relative viability: 0.134
4EGI-1 + Tozasertib; first compound 0.5 µM
  relative viability: 0.538
4EGI-1 + Tozasertib; first compound 5 µM
  relative viability: 0.45
4EGI-1 + Tozasertib; first compound 15.81 µM
  relative viability: 0.144
4EGI-1 + Tozasertib; first compound 50 µM
  relative viability: 0.314
XMD8-85 + Lapatinib; first compound 0.08 µM
  relative viability: 0.551
XMD8-85 + Lapatinib; first compound 0.253 µM
  relative viability: 0.84
XMD8-85 + Lapatinib; first compound 0.8 µM
  relative viability: 1.27
XMD8-85 + Lapatinib; first compound 2.53 µM
  relative viability: 1.29
XMD8-85 + Lapatinib; first compound 8 µM
  relative viability: 0.406

## NCI-H2347
4EGI-1 + Alpelisib; first compound 0.5 µM
  relative viability: 1.2
4EGI-1 + Alpelisib; first compound 1.581 µM
  relative viability: 0.953
4EGI-1 + Alpelisib; first compound 5 µM
  relative viability: 1.04
4EGI-1 + Alpelisib; first compound 15.81 µM
  relative viability: 0.965
4EGI-1 + Alpelisib; first compound 50 µM
  relative viability: 0.978
4EGI-1 + Olaparib; first compound 0.5 µM
  relative viability: 0.555
4EGI-1 + Olaparib; first compound 1.581 µM
  relative viability: 0.487
4EGI-1 + Olaparib; first compound 5 µM
  relative viability: 0.567
4EGI-1 + Olaparib; first compound 15.81 µM
  relative viability: 0.607
4EGI-1 + Olaparib; first compound 50 µM
  relative viability: 0.533
4EGI-1 + Tozasertib; first compound 0.5 µM
  relative viability: 0.589
4EGI-1 + Tozasertib; first compound 5 µM
  relative viability: 0.557
4EGI-1 + Tozasertib; first compound 15.81 µM
  relative viability: 0.46
4EGI-1 + Tozasertib; first compound 50 µM
  relative viability: 0.467
XMD8-85 + Lapatinib; first compound 0.08 µM
  relative viability: 0.892
XMD8-85 + Lapatinib; first compound 0.253 µM
  relative viability: 0.958
XMD8-85 + Lapatinib; first compound 0.8 µM
  relative viability: 0.9
XMD8-85 + Lapatinib; first compound 2.53 µM
  relative viability: 1.02
XMD8-85 + Lapatinib; first compound 8 µM
  relative viability: 0.771
